# In patent US20180078482A1, “COMPOSITION CONTAINING THEASAPOGENOL DERIVATIVE AS ACTIVE INGREDIENT” (AMOREPACIFIC CORPORATION, priority 2015, published 2018):
# Key:
# Fibroblasts = assay: Promotion of collagen biosynthesis (procollagen type (I) ELISA in fibroblasts); format: cell-based; settings: 2 μg/ml, 24 hours, untreated group set to 100
# Procedure: The collagen biosynthesis promoting effect of the theasapogenol derivative obtained in Preparation Example 1 was measured in comparison with TGF-beta of a positive control.
# Fibroblasts were seeded by 10^5 in one well of a 24-well plate and incubated until they grew up to about 90%. This was incubated in serum-free DMEM medium for 24 hours and treated with 2 μg/ml of each of the theasapogenol derivative obtained in Preparation Example 1 and TGF-beta, and incubated in a CO2 incubator for 24 hours. Thereafter, the supernatant was taken out and subjected to the observation using the ELISA kit (procollagen type (I)) to determine whether the procollagen increased or decreased. The results are presented in Table 1, and the collagen synthesizing ability was compared by setting the collagen synthesizing ability of the untreated group to 100.
# 5α-reductase = biological target: T1, 5α-reductase (Homo sapiens, UniProt P31213); assay: Inhibition of 5α-reductase activity ([14C]testosterone to [14C]dihydrotestosterone conversion in HEK293-5αR2 cells); format: cell-based; settings: 2 μg/ml, 2 hours at 37° C.; for Conversion rate (%): radioactivity to DHT area/total radioactivity
# T1 construct: 3×FLAG; expressed in transfected cells; host or cells: HEK293
# T1 sequence (P31213 1-254): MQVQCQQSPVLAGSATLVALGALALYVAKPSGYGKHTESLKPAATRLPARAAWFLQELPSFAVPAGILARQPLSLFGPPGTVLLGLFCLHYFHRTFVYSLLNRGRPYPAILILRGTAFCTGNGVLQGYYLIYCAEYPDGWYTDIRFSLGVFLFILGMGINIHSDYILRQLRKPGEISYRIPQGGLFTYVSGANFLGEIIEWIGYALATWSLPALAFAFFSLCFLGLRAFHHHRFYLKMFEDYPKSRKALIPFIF
# Procedure: The 5α-reductase activity inhibiting effect was measured by the ratio of [^14C]testosterone converted into [^14C]dihydrotestosterone in HEK293-5αR2 cells. HEK293 cells were transfected with p3×FLAG-CMV-5αR2 and incubated in a 24-well plate at a density of 2.5×10^5 cells per well (Park et al., 2003, JDS Vol. 31, pp. 91-98). The next day, the medium was replaced with a fresh medium containing an enzyme substrate and an inhibitor, and 0.05 μCi [^14C]testosterone (Amersham Pharmacia biotech, UK) was used as the substrate of the medium. In order to confirm the degree of inhibition, 2 μg/ml of theasapogenol derivative obtained in Preparation Example 1 was added to the medium as a test substance, and the medium was incubated in a 5% CO2 incubator at 37° C. for 2 hours.
# Thereafter, the incubated mediums were collected and testosterone was extracted with 800 μl of ethyl acetate. The upper organic solvent layer was separated and dried, and the residue was dissolved again in 50 μl of ethyl acetate and developed on the silica plastic sheet kieselgel 60 F254 by using ethyl acetate-hexane (1:1) as a developing solvent. After the plastic sample was dried in the air, a bath system was used to measure the amounts of isotopes, the dried plastic sheet and an x-ray film were placed in a bath cassette together, and the amounts of isotopes in testosterone and dihydrotestosterone remaining on the film after one week were measured.
# (1) Conversion rate: radioactivity to DHT area/total radioactivity
# (2) Inhibition rate: 100×(conversion rate of control group−conversion rate of sample)/conversion rate of control group
# [1] = 100×(conversion rate of control group−conversion rate of sample)/conversion rate of control group
Compound,Collagen synthesizing ability (%) (Fibroblasts),Inhibition rate (%) (5α-reductase; [1]),Conversion rate (%) (5α-reductase),inhibition at 2 µg/mL (5α-reductase; [1]) [%]
21-O-angeloyltheasapogenol E3 [Preparation Example 1],145.1 ± 12.5,38,30,
"CC(C)(C)NC(=O)[C@H]1CC[C@H]2[C@@H]3CC[C@H]4NC(=O)C=C[C@]4(C)[C@H]3CC[C@]12C [Finasteride, reference compound]",,,27,44
